Data published in article PMC10140581, “Development and evaluation of novel artemisinin-isatin hybrids with potential anti-leukemic cytotoxicity” (Frontiers in Oncology, 2023).

How the values were obtained:
[1] = system: CCRF-CEM human acute lymphoblastic leukemia cell line; experiment: MTT antiproliferative assay, CCRF-CEM; assay type: cell-based
Procedure: (§1) The antiproliferative activity and cytotoxicity of ester tethered ART-isatin hybrids 7a-u against human myeloid leukemia cell lines (K562 CM-0130 purchased from Procell and K562/ADR AW-CELLS-H0187 purchased from AnWei-sci), human acute lymphoblastic leukemia cell line (CCRF-CEM CL-0058 purchased from Procell) as well as cytotoxicity towards normal human peripheral blood mononuclear cells (PBMCs 230470, purchased from Mingzhoubio) were assessed by 3-(4,5-dimethylthiazol-2-yl)-2,5-diphenyltetrazolium bromide (MTT) assay.
(§2) Medium in wells was replaced after 24 h with fresh medium containing the tested compounds in DMSO (1% v/v) and incubated for 72 h. […] 3-(4,5-dimethyl-2-thiazolyl)-2,5-diphenyltetrazolium bromide (MTT) solution (10 µL) was added to each well, and the cultures were incubated for an additional 4 h at 37°C. A further 100 µL of […] was added and incubation continued overnight at 37°C. The absorbance at 540 nm was determined in each well with a 96-well plate reader. The growth of the treated cells was compared with that of untreated cells. Half maximum inhibitory concentration (IC50) is a measurement of the efficacy of a substance in inhibiting a specific biological or biochemical process. […] In this experiment, the dose-response curve constructed by Spss22.0 software was used to calculate the inhibitory effect of the hybrid (0 μM-100 μM) on the activity of leukemia cell lines. Each experiment was performed independently in triplicate with three tests in each, and results were reported as mean inhibitory concentration IC50.

[2] = system: K562/ADR human myeloid leukemia cell line; experiment: MTT antiproliferative assay, K562/ADR; assay type: cell-based
Procedure: as §1, with “assay. The antiproliferative activity was expressed by half maximal inhibitory concentration (IC50) values, which were presented in Table 2 .” for “assay.”
as §2

[3] = system: K562 human myeloid leukemia cell line; experiment: MTT antiproliferative assay, K562; assay type: cell-based
Procedure: as §1, §2

[4] = MTT cytotoxicity assay, normal PBMCs; assay type: cell-based, human; conditions: normal peripheral blood mononuclear cells (PBMCs); MTT assay, normal human PBMCs
Procedure: as §1

[5] = system: normal human peripheral blood mononuclear cells (PBMCs); experiment: MTT cytotoxicity assay, normal PBMCs; assay type: cell-based; conditions: PBMCs vs CCRF-CEM
Procedure: as §1

| Structure (SMILES) | IC50 [1] [µM] | IC50 [2] [µM] | IC50 [3] [µM] | IC50 [4] [µM] | SI, Selectivity index, IC50(PBMCs)/IC50(CCRF-CEM) [5] |
| --- | --- | --- | --- | --- | --- |
| COc1cccc2c1C(=O)c1c(O)c3c(c(O)c1C2=O)C[C@@](O)(C(=O)CO)C[C@@H]3O[C@H]1C[C@H](N)[C@H](O)[C@H](C)O1 [Adriamycin, reference compound] | 0.01 | > 100 | 4.89 | 46.9 | 4690 |
| CON=C1C(=O)N(CC(=O)OC2O[C@@H]3O[C@@]4(C)CC[C@H]5[C@H](C)CC[C@@H]([C@H]2C)[C@@]35OO4)c2ccccc21 (stereo partly drawn) [hybrid 7a, (3R,5aS,6R,8aS,9R,12R,12aR)-3,6,9-trimethyldecahydro-12H-3,12-epoxy[1,2]dioxepino[4,3-i]isochromen-10-yl 2-(3-(methoxyimino)-2-oxoindolin-1-yl)acetate] | 3.83 | 49.8 | 33.6 | > 100 | >26.10 |
| CON=C1C(=O)N(CCC(=O)OC2O[C@@H]3O[C@@]4(C)CC[C@H]5[C@H](C)CC[C@@H]([C@H]2C)[C@@]35OO4)c2ccccc21 (stereo partly drawn) [hybrid 7e, (3R,5aS,6R,8aS,9R,12R,12aR)-3,6,9-trimethyldecahydro-12H-3,12-epoxy[1,2]dioxepino[4,3-i]isochromen-10-yl 3-(3-(methoxyimino)-2-oxoindolin-1-yl)propanoate] | 15.2 | 22.7 | 3.78 | > 100 | >6.59 |
| CCON=C1C(=O)N(CCC(=O)OC2O[C@@H]3O[C@@]4(C)CC[C@H]5[C@H](C)CC[C@@H]([C@H]2C)[C@@]35OO4)c2ccccc21 (stereo partly drawn) [hybrid 7f, (3R,5aS,6R,8aS,9R,12R,12aR)-3,6,9-trimethyldecahydro-12H-3,12-epoxy[1,2]dioxepino[4,3-i]isochromen-10-yl 3-(3-(ethoxyimino)-2-oxoindolin-1-yl)propanoate] | 9.16 | > 100 | 5.7 | > 100 | >10.91 |
| CON=C1C(=O)N(CCC(=O)OC2O[C@@H]3O[C@@]4(C)CC[C@H]5[C@H](C)CC[C@@H]([C@H]2C)[C@@]35OO4)c2ccc(F)cc21 (stereo partly drawn) [hybrid 7h, (3R,5aS,6R,8aS,9R,12R,12aR)-3,6,9-trimethyldecahydro-12H-3,12-epoxy[1,2]dioxepino[4,3-i]isochromen-10-yl 3-(5-fluoro-3-(methoxyimino)-2-oxoindolin-1-yl)propanoate] | 1.31 | 16.2 | > 100 | > 100 | >76.33 |
| CON=C1C(=O)N(CCC(=O)OC2O[C@@H]3O[C@@]4(C)CC[C@H]5[C@H](C)CC[C@@H]([C@H]2C)[C@@]35OO4)c2ccc(OC)cc21 (stereo partly drawn) [hybrid 7k, (3R,5aS,6R,8aS,9R,12R,12aR)-3,6,9-trimethyldecahydro-12H-3,12-epoxy[1,2]dioxepino[4,3-i]isochromen-10-yl 3-(5-methoxy-3-(methoxyimino)-2-oxoindolin-1-yl)propanoate] | 6.74 | > 100 | > 100 | > 100 | >14.83 |
| CCON=C1C(=O)N(CCC(=O)OC2O[C@@H]3O[C@@]4(C)CC[C@H]5[C@H](C)CC[C@@H]([C@H]2C)[C@@]35OO4)c2ccc(OC)cc21 (stereo partly drawn) [hybrid 7l, (3R,5aS,6R,8aS,9R,12R,12aR)-3,6,9-trimethyldecahydro-12H-3,12-epoxy[1,2]dioxepino[4,3-i]isochromen-10-yl 3-(5-methoxy-3-(ethoxyimino)-2-oxoindolin-1-yl)propanoate] | 19.4 | > 100 | > 100 | > 100 | >5.16 |
| CON=C1C(=O)N(CCCC(=O)OC2O[C@@H]3O[C@@]4(C)CC[C@H]5[C@H](C)CC[C@@H]([C@H]2C)[C@@]35OO4)c2ccccc21 (stereo partly drawn) [hybrid 7m, (3R,5aS,6R,8aS,9R,12R,12aR)-3,6,9-trimethyldecahydro-12H-3,12-epoxy[1,2]dioxepino[4,3-i]isochromen-10-yl 4-(3-(methoxyimino)-2-oxoindolin-1-yl)butanoate] | 2.78 | > 100 | > 100 | > 100 | >35.97 |
| CON=C1C(=O)N(CCCC(=O)OC2O[C@@H]3O[C@@]4(C)CC[C@H]5[C@H](C)CC[C@@H]([C@H]2C)[C@@]35OO4)c2ccc(F)cc21 (stereo partly drawn) [hybrid 7p, (3R,5aS,6R,8aS,9R,12R,12aR)-3,6,9-trimethyldecahydro-12H-3,12-epoxy[1,2]dioxepino[4,3-i]isochromen-10-yl 4-(3-(methoxyimino)-5-fluoro-2-oxoindolin-1-yl)butanoate] | 18.6 | > 100 | 49.8 | > 100 | >5.36 |
| CCON=C1C(=O)N(CCCC(=O)OC2O[C@@H]3O[C@@]4(C)CC[C@H]5[C@H](C)CC[C@@H]([C@H]2C)[C@@]35OO4)c2ccc(F)cc21 (stereo partly drawn) [hybrid 7q, (3R,5aS,6R,8aS,9R,12R,12aR)-3,6,9-trimethyldecahydro-12H-3,12-epoxy[1,2]dioxepino[4,3-i]isochromen-10-yl 4-(3-(ethoxyimino)-5-fluoro-2-oxoindolin-1-yl)butanoate] | 12.7 | > 100 | 16 | > 100 | >7.85 |
| C[C@@H]1CC[C@H]2[C@@H](C)C(OC(=O)CCCN3C(=O)C(=NOCc4ccccc4)c4cc(F)ccc43)O[C@@H]3O[C@@]4(C)CC[C@@H]1[C@]32OO4 (stereo partly drawn) [hybrid 7r, (3R,5aS,6R,8aS,9R,12R,12aR)-3,6,9-trimethyldecahydro-12H-3,12-epoxy[1,2]dioxepino[4,3-i]isochromen-10-yl 4-(3-[(benzyloxy)imino)-5-fluoro-2-oxoindolin-1-yl]butanoate] | 9.21 | > 100 | 6.32 | > 100 | >10.85 |
| CON=C1C(=O)N(CCCC(=O)OC2O[C@@H]3O[C@@]4(C)CC[C@H]5[C@H](C)CC[C@@H]([C@H]2C)[C@@]35OO4)c2ccc(OC)cc21 (stereo partly drawn) [hybrid 7s, (3R,5aS,6R,8aS,9R,12R,12aR)-3,6,9-trimethyldecahydro-12H-3,12-epoxy[1,2]dioxepino[4,3-i]isochromen-10-yl 4-(5-methoxy-3-(methoxyimino)-2-oxoindolin-1-yl)butanoate] | 3.82 | > 100 | > 100 | > 100 | >26.17 |
| CCON=C1C(=O)N(CCCC(=O)OC2O[C@@H]3O[C@@]4(C)CC[C@H]5[C@H](C)CC[C@@H]([C@H]2C)[C@@]35OO4)c2ccc(OC)cc21 (stereo partly drawn) [hybrid 7t, (3R,5aS,6R,8aS,9R,12R,12aR)-3,6,9-trimethyldecahydro-12H-3,12-epoxy[1,2]dioxepino[4,3-i]isochromen-10-yl 4-(3-(ethoxyimino)-5-methoxy-2-oxoindolin-1-yl)butanoate] | 1.9 | > 100 | > 100 | > 100 | >52.63 |
| COc1ccc2c(c1)C(=NOCc1ccccc1)C(=O)N2CCCC(=O)OC1O[C@@H]2O[C@@]3(C)CC[C@H]4[C@H](C)CC[C@@H]([C@H]1C)[C@@]24OO3 (stereo partly drawn) [hybrid 7u, (3R,5aS,6R,8aS,9R,12R,12aR)-3,6,9-trimethyldecahydro-12H-3,12-epoxy[1,2]dioxepino[4,3-i]isochromen-10-yl 4-(3-[(benzyloxy)imino)-5-methoxy-2-oxoindolin-1-yl]butanoate] | 2.45 | > 100 | > 100 | > 100 | >40.81 |
